Here are results for eight compounds from US5700817A, “Cyclic lipid derivatives as potent PAF antagonists” (Pohang Iron & Steel Co., Ltd., priority 1993, dated 1997).

Test [1] relates to PAF-induced [^14 C]serotonin release, rabbit platelets. The test can be described thus: Inhibitory action on PAF-induced [14C]-serotonin release from rabbit platelets. The format is cell-based, New Zealand white male rabbits. The conditions noted are these: Oryctolagus cuniculus, Platelet, PAF 1×10^-9 M; for inhibition at 0.05 µM: test compound 5 × 10^-8 M; for inhibition at 0.005 µM: test compound 5 × 10^-9 M. The procedure: The following pharmacological test examples explain the effects of the present invention in a more concrete manner.
Inhibitory action on PAF-induced [^14 ]-serotonin release
Blood was collected from the hearts of conscious New Zealand white male rabbits weighing 2 to 3 kg. The blood was immediately subjected to a centrifuge at 1400 rpm for 10 minutes to obtain platelet rich plasma(PRP).PRP was incubated with a trace amount of [^14 C]-serotonin for 20 minutes at 22° C. Prelabelled platelets were prepared by centrifugation at 3500 rpm for 10 minutes. The test compound was added to 80 μl of [^14 C]serotonin-labeled platelets in plastic test tubes, and the mixture was incubated for 2 minutes. PAF (1×10 ^-9 M) was then added to the reaction mixture and incubated for additional 2 minutes at which time 10 μl of cold formaldehyde was added to stop the reactions. The tubes were immediately cooled to 4° C. and centrifuged at 12000 rpm for 2 minutes. The supernatants (80 μl) were assayed for percentage of [^14 C]serotonin release by the conventional methods of measuring ^14 C counts.

For test [2], the system named is PAF-induced platelet aggregation, rabbit platelets. The test can be described thus: Inhibitory action on PAF-induced platelet aggregation (platelet-rich plasma). The format is cell-based, New Zealand male rabbits. The conditions noted are these: Oryctolagus cuniculus, PAF 5×10^-9 M, 37° C., turbidimetry, rabbit PRP.
Description: Blood was collected from the hearts of conscious New Zealand male rabbits weighing 2 to 3 kg using citric acid as an anticoagulant (one volume part of 3% citric acid relative to 9 volume parts of the whole blood). A platelet-rich plasma(PRP) was prepared by centrifugation at 1000 rpm for 10 minutes. The remaining blood after collecting the PRP was subjected to a centrifuge at 3000 rpm for 10 minutes to obtain platelet poor plasma(PPP). PRP was diluted with PPP to adjust the number of platelets to about 3×10^5 /μl. Solution of test compound (30 μl) was added to the PRP(270 μl), and after incubation for 2 minutes at 37° C., 30 μl aliquot of PAF(5×10^-9 M) was added. Platelet aggregation was then examined by means of turbidimetry [Born, Nature, 194, 927(1962)] with dual channel aggregometer (Chrono-Log. Corp., Havertown, Pa.). As the control, physiological saline without test sample was used. The platelet aggregation inhibiting activities of the test sample are expressed as IC50, that is the concentration of the compound at which 50% of the aggregation is inhibited.
In a further test the target is T1, PAF receptor (Oryctolagus cuniculus, UniProt G1TEI7).
T1 construct: Platelet membranes were prepared by centrifugation and washing; tissue Pel-Freez (Rogers, AR), supplier of the citrated whole rabbit blood; host or cells: rabbit platelet membranes
T1 sequence (G1TEI7 1-342): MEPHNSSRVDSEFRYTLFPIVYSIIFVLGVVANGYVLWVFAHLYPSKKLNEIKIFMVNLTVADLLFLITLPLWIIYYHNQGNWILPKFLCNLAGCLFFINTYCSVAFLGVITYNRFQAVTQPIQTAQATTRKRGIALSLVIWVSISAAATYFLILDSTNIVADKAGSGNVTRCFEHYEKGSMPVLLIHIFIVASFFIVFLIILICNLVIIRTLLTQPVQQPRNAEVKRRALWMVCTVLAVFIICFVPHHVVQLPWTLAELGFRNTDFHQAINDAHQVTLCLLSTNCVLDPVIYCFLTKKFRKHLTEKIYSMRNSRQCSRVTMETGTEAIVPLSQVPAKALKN
Description: PAF Receptor Binding Assay ([3H]C18-PAF, rabbit platelet membranes). The procedure:
PAF Receptor Binding Assay Citrated whole rabbit blood was obtained from Pel-Freez(Rogers, AR). Rabbit platelets were prepared by centrifugation and washing. The platelets were lysed by freeze-thawing and sonification; Platelet membranes were prepared by centrifugation and washing. Final membrane preparation were stored frozen in 10 mM Tris/5 mM MgCl2 /2 mM EDTA (TME buffer, pH 7.0) with 0.25M sucrose added for membrane stabilization. […] The final volume of the assay was 1001 μl. The assay was conducted in Millititer-GV™(Millipore Corp.) filtration plates; incubation time was for 60 minutes at room temperature (22°-23° C.). […] The filters were dried and removed. The bound radioactivity was quantiated with a Berthold TLC-Linear Analyzer model LB2842. […] Experiments were repeated at least once. […] Ki values of inhibitory binding constants were calculated according to the methods of the literature[Cheng et al., Biochem.

`CCCCCCCCCCCCCCCCCCNC(=O)OC[C@H]1C[C@H](COC(=O)N(Cc2cccc[n+]2CC)C(C)=O)O1` (relative stereo) [Example 5, trans-2-[[N-Acetyl-N-[[[4-[[(octadecylcarbamoyl)oxy]methyl]-2-oxetanyl]methoxy]carbonyl]amino]methyl]-1-ethyl-pyridinium iodide]: in test [1], the inhibition (in general, the share of the control response that was lost under treatment) at 0.05 µM stood at 95% and the inhibition at 0.005 µM was found to be 70%.

Regarding `CCCCCCCCCCCCCCCCCCNC(=O)OCC1(COC(=O)CCCCC[n+]2ccsc2)COC1` [Example 13, 3-[5-[[[3-[[(Octadecylcarbamoyl)oxy]methyl]-3-oxetanyl]methoxy]carbonyl]pentyl]thiazolium bromide], in test [1], the inhibition at 0.05 µM amounted to 85%.

In the case of `CCCCCCCCCCCCCCCCOC[C@H]1C[C@H](COC(=O)N(Cc2cccc[n+]2CC)C(=O)c2ccccc2OC)S1` (relative stereo) [Example 33, trans-2-[[N-(2-Methoxy)benzoyl-N-[[[4-[(hexadecyloxy)methyl]-2-thietanyl]methoxy]carbonyl]amino]methyl]-1-ethyl-pyridinium chloride], in test [2], the IC50 – broadly, the concentration needed to halve the response being measured – was determined as 19 nM.

`CCCCCCCCCCCCCCCCOC[C@H]1C[C@@H](COC(=O)N(Cc2cccc[n+]2CC)C(C)=O)O1` (relative stereo) [Example 1, cis-2-[[N-Acetyl-N-[[[2-[(hexadecyloxy)methyl]-4-oxetanyl]methoxy]carbonyl]amino]methyl]-1-ethyl-pyridinium iodide] displayed an inhibition at 0.2 µM in test [1] (test compound 2 × 10^-7 M) of 90%.

Regarding `CCCCCCCCCCCCCCCCCCNC(=O)OC[C@H]1C[C@H](COC(=O)N(Cc2cccc[n+]2CC)C(C)=O)N1C(=O)c1ccccc1` (relative stereo) [Example 44, 2-[[N-Acetyl-N-[[[4-[[(octadecylcarbamoyl)oxy]methyl]-1-benzoylazetidine-2-yl]methoxy]carbonyl]amino]methyl]-1-ethyl-pyridinium chloride], the Ki (as a rule, the dissociation constant of the complex between target and ligand, obtained from inhibition or displacement) on PAF receptor was 104 nM.

In turn, `CCCCCCCCCCCCCCCCCCNC(=O)OCC1(COC(=O)N(Cc2cccc[n+]2CC)C(C)=O)COC1` [Example 6, 2-[[-Acetyl-N-[[[3-[[(octadecylcarbamoyl)oxy]methyl]-3-oxetanyl]methoxy]carbonyl]amino]methyl]-1-ethyl-pyridinium iodide] showed an inhibition at 0.005 µM in test [1] of 75%.

In test [1], `CCCCCCCCCCCCCCCCCCNC(=O)OC[C@@H]1C[C@H](COC(=O)N(Cc2cccc[n+]2CC)C(C)=O)O1` (relative stereo) [Example 3, cis-2-[[N-Acetyl-N-[[[4-[[(octadecylcarbamoyl)oxy]methyl]-2-oxetanyl]methoxy]carbonyl]amino]methyl]-1-ethyl-pyridinium iodide] gave an inhibition at 0.05 µM of 85%.

At PAF receptor, `CCCCCCCCCCCCCCCCCCNC(=O)OC[C@H]1C[C@H](COC(=O)N(Cc2cccc[n+]2CC)C(=O)c2ccccc2OC)S1` (relative stereo) [Example 30, trans-2-[[N-(2-Methoxy)benzoyl-N-[[[4-[[(octadecylcarbamoyl)oxy]ethyl]-2-thietanyl]methoxy]carbonyl]amino]-1-ethyl-pyridinium chloride] came in with an inhibitory constant (Ki) of 34 nM.
